This passage reports IC50 and Km results from US20230295110A1, “PHD INHIBITOR COMPOUNDS, COMPOSITIONS, AND METHODS OF USE” (Akebia Therapeutics, Inc., priority 2020, published 2023).

The target in one assay is full-length human PHD1 (Homo sapiens (Human), UniProt Q96KS0). The assay can be described thus: TR-FRET assay for PHD enzymes, PHD1. It is filed as biochemical. As to conditions: for pIC50: TR-FRET, 15 nM PHD1, 1 μM 2-OG. The text has this:
PHD1 was expressed in a baculovirus expression system as the full-length protein (NCBI accession number NP_542770.2) with an N-terminal FLAG tag (molecular weight 44.9 kDa).
On the technique in general: TR-FRET usually uses a lanthanide donor and a delayed reading to cut background.

A further assay has as its target full-length human PHD2 (Homo sapiens (Human), UniProt Q9GZT9). The assay can be described thus: TR-FRET assay for PHD enzymes, PHD2.
Another assay deals with full-length human PHD3 (Homo sapiens (Human), UniProt Q9H6Z9). The assay can be described thus: TR-FRET assay for PHD enzymes, PHD3. In kind it is biochemical. The note with it: TR-FRET, 35 nM PHD3, 1 μM 2-OG. The text has this: Recombinant human PHD3 protein (molecular weight 31.1 kDa) was purchased from Active Motif (Carlsbad, CA, USA). It was expressed in E. coli as the full-length protein (NCBI accession number NP_071356.1) with an N-terminal 6-His tag (catalog #81033, Lot #24417001).
Chain of full-length human PHD3 (Q9H6Z9 whole entry): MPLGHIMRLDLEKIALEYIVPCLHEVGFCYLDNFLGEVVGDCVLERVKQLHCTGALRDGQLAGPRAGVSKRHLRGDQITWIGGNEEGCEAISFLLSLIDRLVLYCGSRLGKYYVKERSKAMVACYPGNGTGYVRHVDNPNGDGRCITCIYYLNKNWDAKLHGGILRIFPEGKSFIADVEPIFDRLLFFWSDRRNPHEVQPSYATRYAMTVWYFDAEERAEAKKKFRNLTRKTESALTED

Setting [1] is: read-out: PHD2 IC50, TR-FRET, 5 nM PHD2, 1 μM 2-OG.

SMILES strings stand for the structures. pIC50: −log10 of the molar value. Where two headings read alike, the source gives them in different places. Bounds are passed on as bounds.

Chain of full-length human PHD1 (Q96KS0 whole entry): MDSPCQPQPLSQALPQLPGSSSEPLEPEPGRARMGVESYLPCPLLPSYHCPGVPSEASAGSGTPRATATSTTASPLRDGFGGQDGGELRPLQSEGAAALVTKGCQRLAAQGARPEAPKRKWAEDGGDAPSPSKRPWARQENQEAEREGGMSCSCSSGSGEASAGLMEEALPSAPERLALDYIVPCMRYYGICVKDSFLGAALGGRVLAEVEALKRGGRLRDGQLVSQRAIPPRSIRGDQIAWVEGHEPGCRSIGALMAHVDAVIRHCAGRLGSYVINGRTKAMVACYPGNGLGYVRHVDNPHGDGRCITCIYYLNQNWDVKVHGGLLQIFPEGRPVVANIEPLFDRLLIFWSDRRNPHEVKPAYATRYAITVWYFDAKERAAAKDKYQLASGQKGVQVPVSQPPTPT
Chain of full-length human PHD2 (Q9GZT9 whole entry): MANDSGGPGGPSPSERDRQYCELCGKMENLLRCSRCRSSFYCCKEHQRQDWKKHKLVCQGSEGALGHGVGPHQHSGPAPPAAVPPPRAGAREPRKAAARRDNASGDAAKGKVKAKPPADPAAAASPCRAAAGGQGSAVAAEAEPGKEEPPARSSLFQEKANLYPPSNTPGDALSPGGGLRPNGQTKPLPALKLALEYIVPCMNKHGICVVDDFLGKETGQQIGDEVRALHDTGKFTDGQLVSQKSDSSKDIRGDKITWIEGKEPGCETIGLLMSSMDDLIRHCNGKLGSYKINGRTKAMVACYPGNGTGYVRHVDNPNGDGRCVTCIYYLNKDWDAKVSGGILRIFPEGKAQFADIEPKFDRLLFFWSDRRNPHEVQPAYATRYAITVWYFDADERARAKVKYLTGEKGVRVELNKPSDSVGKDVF
Excerpt for full-length human PHD2: Time-resolved fluorescence resonance energy transfer (TR-FRET) assay was utilized to determine the enzymatic half maximal inhibitory concentration (IC50) value of PHD inhibitors against the full-length human prolyl-4-hydroxylase domain (PHD) enzymes, PHD1, PHD2, and PHD3. The TR-FRET assay was developed based on the specific binding of hydroxylated HIF-1α peptide with the complex formed by VHL, EloB and EloC (VBC), to generate a fluorescent signal. Terbium (Tb)-Donor (monoclonal antibody anti-6His-Tb-cryptate Gold) and D2-acceptor (streptavidin [SA]-D2) of TR-FRET are linked to the VBC complex and to HIF-1α peptide, respectively. The VBC complex binds specifically to the HIF-1α peptide when it is hydroxylated, allowing energy transfer from TR-FRET donor to acceptor (FIG. 1). […] The plates were incubated for 30 minutes at room temperature without rotation. […] TR-FRET assays were performed in triplicate at each concentration of compound and the assays were repeated independently three times.

What is called pIC50 is the negative decadic logarithm of the IC50, by convention in mol/L. As for `Cc1c(-c2cccc(F)c2)cnc(C(=O)NCC(=O)O)c1O` [Compound 1, (5-(3-Fluorophenyl)-3-hydroxy-4-methylpicolinoyl)glycine], the pIC50 at full-length human PHD1 and on full-length human PHD2 (setting [1]) was over 7.00 throughout.

For `COc1cccc(-c2cnc(C(=O)NCC(=O)O)c(O)c2C)c1` [Compound 2, (3-Hydroxy-5-(3-methoxyphenyl)-4-methylpicolinoyl)glycine], the pIC50 on full-length human PHD1, on full-length human PHD3 and at full-length human PHD2 (setting [1]) was over 7.00 each time.

What is called Km is the concentration of substrate that gives half-maximal velocity. In the case of `O=C(O)CCC(=O)C(=O)O` [Compound 2-OG, 2-oxoglutarate, reference compound], the Km at full-length human PHD1 (read-out: Km of 2-OG for PHD1) came out at 0.0127 µM.

In the case of `Cc1c(-c2cnn(-c3ccccc3)c2)cnc(C(=O)NCC(=O)O)c1O` [Compound 4, (3-Hydroxy-4-methyl-5-(1-phenyl-1H-pyrazol-4-yl)picolinoyl)glycine], the pIC50 against full-length human PHD1 and at full-length human PHD2 (setting [1]) was over 7.00 each time.

`Cc1c(-c2cnn(C3CCN(C(=O)OC(C)(C)C)CC3)c2)cnc(C(=O)NCC(=O)O)c1O` [Compound 6, (5-(1-(1-(Tert-butoxycarbonyl)piperidin-4-yl)-1H-pyrazol-4-yl)-3-hydroxy-4-methylpicolinoyl)glycine]: the pIC50 against full-length human PHD1 and at full-length human PHD2 (setting [1]) was over 7.00 each time.

For the compound `Cc1c(-c2cccc(Oc3ccccc3)c2)cnc(C(=O)NCC(=O)O)c1O` [Compound 8, (3-Hydroxy-4-methyl-5-(3-phenoxyphenyl)picolinoyl)glycine], the negative-log IC50 (pIC50) against full-length human PHD1 and on full-length human PHD2 (setting [1]) was over 7.00 throughout.

`Cc1c(-c2ccncc2)cnc(C(=O)NCC(=O)O)c1O` [Compound 11, (5-Hydroxy-4-methyl-[3,4′-bipyridine]-6-carbonyl)glycine]: the pIC50 against full-length human PHD1 and on full-length human PHD2 (setting [1]) was over 7.00 each time.

For the compound `Cc1c(-c2ccccn2)cnc(C(=O)NCC(=O)O)c1O` [Compound 12, (5′-Hydroxy-4′-methyl-[2,3′-bipyridine]-6′-carbonyl)glycine], the pIC50 at full-length human PHD1 and on full-length human PHD2 (setting [1]) was over 7.00 in each case.

As for `Cc1c(-c2cccc(Cl)c2)cnc(C(=O)NC(C)(C)C(=O)O)c1O` [Compound 13, 2-(5-(3-Chlorophenyl)-3-hydroxy-4-methylpicolinamido)-2-methylpropanoic Acid], the pIC50 on full-length human PHD1 and against full-length human PHD2 was under 5.00 each time.

For `Cc1c(-c2cccc(Cl)c2)cnc(C(=O)NC2(C(=O)O)CC2)c1O` [Compound 14, 1-(5-(3-Chlorophenyl)-3-hydroxy-4-methylpicolinamido)cyclopropane-1-carboxylic acid], the negative logarithm of the IC50 (pIC50) against full-length human PHD1 and against full-length human PHD2 was 5.00 to 6.00 in each case.

For `Cc1c(-c2cccc(Cl)c2)cnc(C(=O)NC2(C(=O)O)CCC2)c1O` [Compound 15, 1-(5-(3-Chlorophenyl)-3-hydroxy-4-methylpicolinamido)cyclobutane-1-carboxylic acid], the negative-log IC50 (pIC50) against full-length human PHD1 and against full-length human PHD2 was under 5.00 in each case.

Take `Cc1c(-c2cccc(Cl)c2)cnc(C(=O)NC2(C(=O)O)COC2)c1O` [Compound 16, 3-(5-(3-Chlorophenyl)-3-hydroxy-4-methylpicolinamido)oxetane-3-carboxylic Acid]: the pIC50 against full-length human PHD1 was 5.00 to 6.00; on full-length human PHD2, under 5.00.

As for `Cc1c(-c2ccc3c(c2)CCC(C)N3)cnc(C(=O)NCC(=O)O)c1O` (stereo not drawn) [Compound 17, (3-Hydroxy-4-methyl-5-(2-methyl-1,2,3,4-tetrahydroquinolin-6-yl)picolinoyl)glycine], the pIC50 at full-length human PHD1 and at full-length human PHD2 (setting [1]) was over 7.00 each time.

In the case of `Cc1cc(CCOCc2ccccc2)c(O)c(C(=O)NCC(=O)O)n1` [Compound 23, (4-(2-(Benzyloxy)ethyl)-3-hydroxy-6-methylpicolinoyl)glycine], the pIC50 on full-length human PHD1 and at full-length human PHD2 was 6.00 to 7.00 throughout.

With `Cc1cc(Cc2ccc(F)cc2)c(O)c(C(=O)NCC(=O)O)n1` [Compound 24, (4-(4-Fluorobenzyl)-3-hydroxy-6-methylpicolinoyl)glycine], the pIC50 on full-length human PHD1 and against full-length human PHD2 was 6.00 to 7.00 each time.

Turning to `Cc1ncccc1-c1cnc(C(=O)NCC(=O)O)c(O)c1C` [Compound 29], the pIC50 against full-length human PHD1 and at full-length human PHD2 was 6.00 to 7.00 in each case.

In the case of `Cc1c(-c2ccc3ncccc3c2)cnc(C(=O)NCC(=O)O)c1O` [Compound 34, (3-hydroxy-4-methyl-5-(quinolin-6-yl)picolinoyl)glycine], the pIC50 against full-length human PHD1 and at full-length human PHD2 (setting [1]) was over 7.00 in each case.

Take `Cc1c(Oc2ccccc2)cnc(C(=O)NCC(=O)O)c1O` [Compound 35, (3-hydroxy-4-methyl-5-phenoxypicolinoyl)glycine]: the pIC50 on full-length human PHD1 and on full-length human PHD2 (setting [1]) was 6.00 to 7.00 in each case.

In the case of `Cc1c(C(=O)c2ccccc2)cnc(C(=O)NCC(=O)O)c1O` [Compound 40, (5-benzoyl-3-hydroxy-4-methylpicolinoyl)glycine], the pIC50 against full-length human PHD1 and against full-length human PHD2 was 6.00 to 7.00 in each case.

Regarding `Cc1c(-c2nnn(-c3cc(Cl)cc(Cl)c3)n2)cnc(C(=O)NCC(=O)O)c1O` [Compound 45, (5-(2-(3,5-dichlorophenyl)-2H-tetrazol-5-yl)-3-hydroxy-4-methylpicolinoyl)glycine], the pIC50 at full-length human PHD1 and at full-length human PHD2 (setting [1]) was over 7.00 each time.

Take `CCc1c(-c2cccc(Cl)c2)cnc(C(=O)NCC(=O)O)c1O` [Compound 46, (5-(3-chlorophenyl)-4-ethyl-3-hydroxypicolinoyl)glycine]: the pIC50 at full-length human PHD1 and at full-length human PHD2 (setting [1]) was over 7.00 throughout.

Consider `Cc1c(-c2cnn(-c3ccccc3)c2F)cnc(C(=O)NCC(=O)O)c1O` [Compound 49, (5-(5-fluoro-1-phenyl-1H-pyrazol-4-yl)-3-hydroxy-4-methylpicolinoyl)glycine], for which the negative logarithm of the IC50 (pIC50) against full-length human PHD1 and on full-length human PHD2 (setting [1]) was over 7.00 each time.

Regarding `Cc1c(-c2cnn(-c3ccccc3)c2C)cnc(C(=O)NCC(=O)O)c1O` [Compound 50, (3-hydroxy-4-methyl-5-(5-methyl-1-phenyl-1H-pyrazol-4-yl)picolinoyl)glycine], the pIC50 on full-length human PHD1 and against full-length human PHD2 was 6.00 to 7.00 each time.

As for `Cc1c(-c2ccn(-c3ccccc3)c2)cnc(C(=O)NCC(=O)O)c1O` [Compound 51], the pIC50 was over 7.00 on full-length human PHD1 and 6.00 to 7.00 at full-length human PHD2.

On to `Cc1c(-c2nnn(C3CC3)n2)cnc(C(=O)NCC(=O)O)c1O` [Compound 52], for which the negative-log IC50 (pIC50) at full-length human PHD1 and on full-length human PHD2 (setting [1]) was over 7.00 in each case.

`Cc1c(C#CCOc2ccccc2)cnc(C(=O)NCC(=O)O)c1O` [Compound 53]: the negative-log IC50 (pIC50) against full-length human PHD1 and at full-length human PHD2 (setting [1]) was over 7.00 in each case.

With `Cc1c(S(=O)(=O)c2ccccc2)cnc(C(=O)NCC(=O)O)c1O` [Compound 54], the pIC50 at full-length human PHD1 and against full-length human PHD2 was 6.00 to 7.00 each time.

Turning to `Cc1c(N2CCN(c3ccccc3)CC2)cnc(C(=O)NCC(=O)O)c1O` [Compound 55], the pIC50 on full-length human PHD1 is over 7.00; against full-length human PHD2, 6.00 to 7.00.

In the case of `Cc1c(N2CCC(c3ccccc3)CC2)cnc(C(=O)NCC(=O)O)c1O` [Compound 56], the pIC50 against full-length human PHD1 and on full-length human PHD2 (setting [1]) was over 7.00 in each case.

As for `Cc1c(Oc2ccccc2)cnc(C(=O)NCC(=O)O)c1O` [Compound 57, 2-(3-hydroxy-4-methyl-5-phenoxypicolinamido)acetic acid], the pIC50 is 5.00 to 6.00 against full-length human PHD1 and 6.00 to 7.00 against full-length human PHD2.

`Cc1c(Cc2ccccc2)cnc(C(=O)NCC(=O)O)c1O` [Compound 58]: the figures for the pIC50 at full-length human PHD1 and at full-length human PHD2 were 5.00 to 6.00 and 6.00 to 7.00, respectively.

As for `Cc1c(Sc2ccccc2)cnc(C(=O)NCC(=O)O)c1O` [Compound 59], the pIC50 on full-length human PHD1 is 5.00 to 6.00; against full-length human PHD2, 6.00 to 7.00.

Consider `Cc1c(-c2cnn(-c3ccc(Cl)cc3Cl)c2)cnc(C(=O)NCC(=O)O)c1O` [Compound 60], for which the negative-log IC50 (pIC50) against full-length human PHD1 and at full-length human PHD2 (setting [1]) was over 7.00 throughout.

`Cc1c(CCc2ccccc2)cnc(C(=O)NCC(=O)O)c1O` [Compound 61]: the pIC50 against full-length human PHD1 and at full-length human PHD2 was 6.00 to 7.00 in each case.

`Cc1c(C#Cc2ccccc2)cnc(C(=O)NCC(=O)O)c1O` [Compound 62]: the pIC50 at full-length human PHD1 and on full-length human PHD2 (setting [1]) was over 7.00 each time.

Turning to `Cc1c(-c2nnn(-c3ccc(Cl)cc3)n2)cnc(C(=O)NCC(=O)O)c1O` [Compound 63], the pIC50 on full-length human PHD1 and on full-length human PHD2 (setting [1]) was over 7.00 each time.

`Cc1c(-c2nn[nH]n2)cnc(C(=O)NCC(=O)O)c1O` [Compound 64]: the negative-log IC50 (pIC50) against full-length human PHD1 and at full-length human PHD2 was 6.00 to 7.00 in each case.

Take `Cc1c(-c2nnn(-c3ccccc3)n2)cnc(C(=O)NCC(=O)O)c1O` [Compound 65]: the pIC50 against full-length human PHD1 and on full-length human PHD2 (setting [1]) was over 7.00 throughout.

As to `Cc1c(-c2cnn(-c3cc(Cl)cc(Cl)c3)c2)cnc(C(=O)NCC(=O)O)c1O` [Compound 66], the pIC50 at full-length human PHD1 and on full-length human PHD2 (setting [1]) was over 7.00 throughout.

In the case of `Cc1c(-c2cnn(-c3ccc(C(F)(F)F)cc3)c2)cnc(C(=O)NCC(=O)O)c1O` [Compound 67], the pIC50 at full-length human PHD1 and on full-length human PHD2 (setting [1]) was over 7.00 throughout.

With `O=C(O)CNC(=O)c1ncc(-c2cccc(Cl)c2)c(C2CC2)c1O` [Compound 69, (5-(3-Chlorophenyl)-4-cyclopropyl-3-hydroxypicolinoyl)glycine], the negative-log IC50 (pIC50) against full-length human PHD1 and against full-length human PHD2 was 6.00 to 7.00 each time.

As for `O=C(O)CNC(=O)c1ncc(-c2cccc(Cl)c2)c(C(F)F)c1O` [Compound 70, (5-(3-Chlorophenyl)-4-(difluoromethyl)-3-hydroxypicolinoyl)glycine], the negative logarithm of the IC50 (pIC50) against full-length human PHD1 and against full-length human PHD2 was 6.00 to 7.00 each time.
